Ki data for 11 compounds are collected here from ChEMBL document CHEMBL2346498, “Expression, characterization and inhibition of Toxoplasma gondii 1-deoxy-D-xylulose-5-phosphate reductoisomerase” (Bioorg Med Chem Lett, 2013).

This assay in a line: Inhibition of recombinant Toxoplasma gondii DXR catalytic domain (68 to 513) expressed in Escherichia coli BL21 using DXP as substrate after 10 mins by Uv-spectrophotometric analysis. The assay is classed as cell-free.

pKi: −log10 of the molar value.

As a reminder, the pKi is −log10 of the Ki, conventionally taken in molar units. Regarding `O=P(O)(O)Cc1ccc(-c2ccccc2)cn1`, the pKi is 5.68.
To `CC(=O)N(O)CCC(c1ccncc1)P(=O)(O)O` (stereo unspecified) belongs 6.28; to `O=P(O)(O)Cc1ccccn1` [PYRIDIN-2-YLMETHYLPHOSPHONIC ACID], 5.39; to `CC(=O)N(O)CCC(c1ccc(Cl)c(Cl)c1)P(=O)(O)O` (stereo unspecified), 6.66.
Regarding `O=c1ccc(-c2ccccc2)cn1O` [1-HYDROXY-5-PHENYLPYRIDIN-2(1H)-ONE], the pKi is 4.59.
For `O=CN(O)CCC(c1ccncc1)P(=O)(O)O` (stereo unspecified), the pKi was 7.10.
To `CC(=O)N(O)CCC(c1cccnc1)P(=O)(O)O` (stereo unspecified) belongs 6.01.
Consider `O=CN(O)CCC(c1ccc(Cl)c(Cl)c1)P(=O)(O)O` (stereo unspecified), for which the pKi is 7.11.
With `O=CN(O)CCC(c1cccnc1)P(=O)(O)O` (stereo unspecified), the pKi is 7.26.
To `O=CN(O)CCCP(=O)(O)O` [FOSMIDOMYCIN] belongs 7.05; to `CC(=O)N(O)CCCP(=O)(O)O` [FR-900098], 7.32.
